Measurements: ChEMBL document CHEMBL1129115, “The role of the C-4 side chain of kainate and dihydrokainate in EAA receptor and transporter selectivity” (Bioorg Med Chem Lett, 1996)

How the values were obtained:
[1] = molecular target: Glutamate receptor ionotropic, kainate; assay: Compound was tested for the inhibition of [3H]kainate radioligand binding to Ionotropic glutamate receptor kainate in synaptic plasma membrane prepared from rat forebrain; type: cell membranes, Brain/Plasma
[2] = molecular target: T1, Glutamate receptor ionotropic, AMPA (Rattus norvegicus, UniProt P19490+P19491+P19492+P19493); assay: Compound was tested for the inhibition of [3H]AMPA radioligand binding to Ionotropic glutamate receptor AMPA in synaptic plasma membrane prepared from rat forebrain; very weak inhibition; type: cell membranes, Brain/Plasma
[3] = organism: Rattus norvegicus; assay: Compound was tested for the inhibition of [3H]D-aspartate radioligand uptake into Synaptosomes in synaptic plasma membrane prepared from rat forebrain; type: functional
[4] = molecular target: Glutamate NMDA receptor; assay: Compound was tested for the inhibition of [3H]L-Glutamate radioligand binding to NMDA receptor in synaptic plasma membrane prepared from rat forebrain; very weak inhibition; type: cell membranes, Brain/Plasma
[5] = molecular target: Glutamate NMDA receptor; assay: Compound was tested for the inhibition of [3H]L-Glutamate radioligand binding to NMDA receptor in synaptic plasma membrane prepared from rat forebrain; type: cell membranes, Brain/Plasma
[6] = molecular target: T1, Glutamate receptor ionotropic, AMPA; assay: Compound was tested for the inhibition of [3H]AMPA radioligand binding to Ionotropic glutamate receptor AMPA in synaptic plasma membrane prepared from rat forebrain; type: cell membranes, Brain/Plasma
[7] = organism: Rattus norvegicus; assay: Compound was tested for the inhibition of [3H]D-aspartate radioligand uptake into Synaptosomes in synaptic plasma membrane prepared from rat forebrain; very weak inhibition; type: functional, Brain/Plasma

Structure (SMILES) | Ki [1] [µM] | Ki [2] [µM] | Ki [3] [µM] | Ki [4] [µM] | Ki [5] [nM] | Ki [6] [µM] | Ki [7] [µM]
CC(C)[C@H]1CN[C@H](C(=O)O)[C@H]1CC(=O)O [DIHYDROKAINATE] | 16 | > 500 | 30 | > 300 | – | – | –
O=C(O)C[C@H]1CCN[C@@H]1C(=O)O [TRANS-CPPA] | 1.6 | – | – | – | 500 | 106 | > 250
